In US20050276857A1, “Hydrogels formed by non-covalent linkages” (University of Washington, priority 2002, published 2005):
Read-outs that look alike come from different tables or passages of the source.

Tests used:
[1] = Comparison of D- and L-amino acids for forming hydrogels with PVA; format: physicochemical; parameters: key: {square root} = Gel formation when amino acid was dissolved in water; + = Gel formation when amino acid was dissolved in 1 M NaHCO3; − = No gel formation regardless of solvent for amino acid; *= HCl derivative of amino acid; conditions: 1 ml of 8% PVA; for Gel formation, D: D-amino acid; for Gel formation, L: L-amino acid
Experimental: In these experiments, the ability of D-amino acids to gel PVA was compared directly to the gelling observed using L-amino acids. The concentrations of amino acids used were the same for both the L- and D-forms. All D- and L-amino acids were obtained from Aldrich. Typically, 100 mg of amino acid was dissolved in the minimum amount of water or 1M NaHCO3 (200-600 microliter) necessary to dissolve it. […] For each amino acid/PVA combination, 1 ml of 8% PVA was used (80 mg PVA) and the amount of amino acid was varied. 100 mg of each of amino acids was added unless listed below, with the following exceptions: L-Gln 20 mg; D-Ile 50 mg; L-Phe 20 mg and 40 mg; L-Pro 50 mg and 100 mg; L-Ser 30 mg and 100 mg; L-Thr 30 mg; D-Trp 10 mg and 30 mg; L-Trp 8 mg; L-Tyr 10 mg; D-Tyr 10 mg; L-Val 30 mg.

[2] = for amount necessary to cause precipitation of 1 ml 8% PVA: 1.8 mmol of available OH groups
Experimental: Succinic acid, ethylene diamine, and glycine were each dissolved in water at a typical ratio of 100 mg in 1 ml water.
Aliquots of 100 microliter of each solution were added to PVA to reach final concentrations of either ˜0.5 mmol (low concentration) or ˜1 mmol (high concentration) per 1 ml 8% PVA solution (1.8 mmol of available OH groups in PVA).

Row | Gel formation, D [1] | Gel formation, L [1] | Structure (SMILES) | also measured
1 | + |  | N[C@H](Cc1ccc(O)cc1)C(=O)O [D-Tyr] | 
2 | − |  | C[C@@H](N)C(=O)O [D-Ala] | 
3 |  | − | O=C(O)[C@@H]1C[C@@H](O)CN1 [L-Hyp] | 
4 |  |  | O=C(O)CCC(=O)O [Succinic Acid, succinic acid] | dissolution of gel in water or in 1M HCl ([2]; gel formed at pH 7.0, higher concentration): did not dissolve; dissolution of gel in water or in 1M HCl ([2]; gel formed at pH 9.7, higher concentration): did not dissolve; Gel formation ([2]; pH 2.1): −; gelling over time ([2]; pH 2.1): No additional gelling; initial gelling ([2]; pH 2.1): very slight gelling; Gel formation ([2]; pH 4): −; Gel formation ([2]; pH 7): +++; gelling at higher concentration ([2]; pH 7.0): PVA precipitates out immediately; gelling over time ([2]; pH 7.0): A little more gelling; initial gelling ([2]; pH 7.0, small amounts added): some initial gelling; amount necessary to cause precipitation of 1 ml 8% PVA ([2]; pH 7): 0.85 mmol; gelling at higher concentration ([2]; pH 9.7): PVA precipitates out immediately; gelling over time ([2]; pH 9.7): Additional gelling; initial gelling ([2]; pH 9.7, small amounts added): some initial gelling; Gel formation ([2]; pH 10): +++; amount necessary to cause precipitation of 1 ml 8% PVA ([2]; pH 10): 0.73 mmol
5 |  | {square root} | N[C@@H](Cc1c[nH]c2ccccc12)C(=O)O [L-Trp] | 
6 |  | {square root} | NCCCC[C@H](N)C(=O)O [L-Lys] | 
7 |  | − | N[C@@H](CC(=O)O)C(=O)O [L-Asp] | 
8 |  | + | C[C@@H](O)[C@H](N)C(=O)O [L-Thr] | 
9 |  | + | C[C@H](N)C(=O)O [L-Ala] | 
10 | {square root} |  | NCCCC[C@@H](N)C(=O)O [D-Lys] | 
11 |  | + | NC(=O)CC[C@H](N)C(=O)O [L-Gln] | 
12 | − |  | NC(=O)CC[C@@H](N)C(=O)O [D-Gln] | 
13 | + |  | CCCC[C@@H](N)C(=O)O [D-Nle] | 
14 |  | + | NC(=O)C[C@H](N)C(=O)O [L-Asn] | 
15 |  | + | N[C@@H](Cc1ccc(O)cc1)C(=O)O [L-Tyr] | 
16 | + |  | CC(C)[C@@H](N)C(=O)O [D-Val] | 
17 |  | + | N[C@@H](Cc1ccccc1)C(=O)O [L-Phe] | 
18 | − |  | N[C@H](CC(=O)O)C(=O)O [D-Asp] | 
19 | + |  | CC[C@@H](C)[C@@H](N)C(=O)O [D-Ile] | 
20 | − |  | N[C@H](Cc1c[nH]cn1)C(=O)O [D-His] | 
21 | {square root} |  | O=C(O)[C@H]1CCCN1 [D-Pro] | 

Row | Gel formation, D [1] | Gel formation, L [1] | Structure (SMILES) | also measured
22 | + |  | C[C@H](O)[C@@H](N)C(=O)O [D-Thr] | 
23 |  | − | CSCC[C@H](N)C(=O)O [L-Met] | 
24 | − |  | NC(=O)C[C@@H](N)C(=O)O [D-Asn] | 
25 |  | + | CC(C)[C@H](N)C(=O)O [L-Val] | 
26 |  |  | NCCN [Ethylene Diamine, ethylene diamine] | Gel formation ([2]; pH 4): −; gelling over time ([2]; pH 4.4): no gelling over time; initial gelling ([2]; pH 4.4): no immediate gelling; Gel formation ([2]; pH 7): −; gelling over time ([2]; pH 7.2): no additional gelling; initial gelling ([2]; pH 7.2): little immediate gelling; Gel formation ([2]; pH 10): ++; initial gelling ([2]; pH 10.0): immediate gelling; gelling over time ([2]; pH 10.0, first 24 hours): additional gelling; initial gelling ([2]; pH 12.7): immediate gelling; gelling over time ([2]; pH 12.7, first 24 hours): additional gelling; Gel formation ([2]; pH 13.1): +++
27 |  | {square root} | N=C(N)NCCC[C@H](N)C(=O)O [L-Arg] | 
28 |  | − | CC(C)C[C@H](N)C(=O)O [L-Leu] | 
29 | + |  | CC(C)C[C@@H](N)C(=O)O [D-Leu] | 
30 |  | + | N[C@@H](CS)C(=O)O [L-Cys] | 
31 |  | − | N[C@@H](CCC(=O)O)C(=O)O [L-Glu] | 
32 | + |  | N[C@H](Cc1ccccc1)C(=O)O [D-Phe] | 
33 |  | {square root} | NCC(=O)O [Glycine, glycine] | dissolution of gel in water ([2]; gel formed at pH 7, cured for 1 hour in its solution before placing in water): did not dissolve; Gel formation ([2]; pH 4): −; initial gelling ([2]; pH 4): little gel formation; gelling over time ([2]; pH 4, within the first 24 hours): additional gel formation; Gel formation ([2]; pH 7): +++; gelling at higher concentration ([2]; pH 7): immediate gel formation; gelling over time ([2]; pH 7): More gelling; initial gelling ([2]; pH 7): substantial gelling; amount necessary to cause precipitation of 1 ml 8% PVA ([2]; pH 7): 2.6 mmol; initial gelling ([2]; pH 9.9): much gelling; gelling over time ([2]; pH 9.9, within 24 hours): Considerable additional gelling; Gel formation ([2]; pH 10): ++
34 |  | + | N[C@@H](CO)C(=O)O [L-Ser] | 
35 | {square root} |  | N[C@H](CO)C(=O)O [D-Ser] | 
36 |  | {square root} | O=C(O)[C@@H]1CCCN1 [L-Pro] | 
37 | + |  | CSCC[C@@H](N)C(=O)O [D-Met] | 
38 |  | − | CC[C@H](C)[C@H](N)C(=O)O [L-Ile] | 
39 | − |  | N[C@H](CCC(=O)O)C(=O)O [D-Glu] | 
40 | −* |  | Cl.NC(N)=NCCC[C@@H](N)C(=O)O [D-Arg] | 
41 |  | {square root} | N[C@@H](Cc1c[nH]cn1)C(=O)O [L-His] | 
42 | + |  | N[C@H](Cc1c[nH]c2ccccc12)C(=O)O [D-Trp] | 
